One experiment deals with Jarid1B (Homo sapiens (Human), UniProt Q9UGL1). Put plainly: In vitro enzyme inhibition assay for Jarid1B activity (TR-FRET). In kind it is biochemical. The protocol: The ability of test compounds to inhibit the activity of Jarid1B was determined in 384-well plate format under the following reaction conditions: 0.8 nM Jarid1B, 300 nM H3K4me3-biotin labeled peptide (Anaspec cat #64357), 2 μM alpha-ketoglutaric acid in assay buffer of 50 mM HEPES, pH7.3, 0.005% Brij35, 0.5 mM TCEP, 0.2 mg/ml BSA, 50 μM sodium L-ascorbate, and 2 μM ammonium iron(II) sulfate. Reaction product was determined quantitatively by TR-FRET after the addition of detection reagent Phycolink Streptavidin-allophycocyanin (Prozyme) and Europium-anti-H3K4me or -H3K4me2 antibody (PerkinElmer) in the presence of 5 mM EDTA in LANCE detection buffer (PerkinElmer) at a final concentration of 25 nM and 1 nM, respectively.
(§1) The assay reaction was initiated by the following: 2 μl of the mixture of 900 nM H3K4me3-biotin labeled peptide and 6 μM alpha-ketoglutaric acid with 2 μl of 11-point serial diluted inhibitor in 3% DMSO was added to each well of the plate, followed by the addition of 2 μl of 2.4 nM Jarid1B to initiate the reaction. The reaction mixture was incubated at RT for 30 min, and terminated by the addition of 6 μl of 5 mM EDTA in LANCE detection buffer containing 50 nM Phycolink Streptavidin-allophycocyanin and 2 nM Europium-anti-H3K4me/H3K4me2 antibody. Plates were read by EnVisionMultilabel Reader in TR-FRET mode (excitation at 320 nm, emission at 615 nm and 665 nm) after 1 hr incubation at RT. A ratio was calculated (665/615) for each well and fitted to determine inhibition constant (IC50).
On the technique in general: In TR-FRET formats the signal depends on donor and acceptor labels being close together.

In another experiment the target is JMJD3 (Homo sapiens, UniProt O15054). The experiment in a line: In vitro enzyme inhibition assay for JMJD3 activity (TR-FRET). In kind it is biochemical. The protocol:
This assay determines the ability of a test compound to inhibit JMJD3 demethylase activity. Baculovirus expressed JMJD3 (GenBank Accession #NM-001080424, AA1043-end) was purchased from BPS Bioscience (Cat#50115).
The enzymatic assay of JMJD3 activity is based upon Time Resolved-Fluorescence Resonance Energy Transfer (TR-FRET) detection. The ability of test compounds to inhibit the activity of JMJD3 was determined in 384-well plate format under the following reaction conditions: 5 nM JMJD3, 250 nM H3K27me3-biotin labeled peptide (Anaspec cat #64367), 0.4 to 2 μM α-ketoglutaric acid in assay buffer of 50 mM HEPES, pH7.3, 0.005% Brij35, 0.5 mM TCEP, 0.2 mg/ml BSA, 50 μM sodium L-ascorbate, and 5 μM ammonium iron(II) sulfate. Reaction product was determined quantitatively by TR-FRET after the addition of detection reagent Phycolink Streptavidin-allophycocyanin (Prozyme) and Europium-anti-H3K27me2 antibody (PerkinElmer) in the presence of 5 mM EDTA in LANCE detection buffer (PerkinElmer) at a final concentration of 50 nM and 1 nM, respectively.
The assay reaction was initiated by the following: […] of the mixture of 750 nM H3K27me3-biotin labeled peptide and 1.2 to 6 μM alpha-ketoglutaric acid with 2 μL of 11-point serial diluted inhibitor in 3% DMSO were added to each well of plate, followed by the addition of 2 μl of 15 nM JMJD3 to initiate the reaction. The reaction mixture was incubated at RT for 30 min, and terminated by the addition of 6 μL of 5 mM EDTA in LANCE detection buffer containing 100 nM Phycolink Streptavidin-allophycocyanin and 2 nM Europium-anti-H3K27me2 antibody. Plates were read by EnVisionMultilabel Reader in TR-FRET mode (excitation at 320 nm, emission at 615 nm and 665 nm) after 1 hr incubation at RT. A ratio from the readout of 665/615 was calculated for each well and fitted to determine inhibition constant (IC50).

The target of the next experiment is JMJD2C (Homo sapiens (Human), UniProt Q9H3R0). Put plainly: In vitro enzyme inhibition assay for JMJD2C activity (TR-FRET). The format is biochemical. The protocol: This assay determines the ability of a test compound to inhibit JMJD2C demethylase activity. Baculovirus expressed JMJD2C (GenBank Accession #BC143571, AA 2-372) was purchased from BPS Bioscience (Cat#50105).
The ability of test compounds to inhibit the activity of JMJD2C was determined in 384-well plate format under the following reaction conditions: 0.3 nM JMJD2C, 300 nM H3K9me3-biotin labeled peptide (Anaspec cat #64360), 2 μM alpha-ketoglutaric acid in assay buffer of 50 mM HEPES, pH7.3, 0.005% Brij35, 0.5 mM TCEP, 0.2 mg/ml BSA, 50 μM sodium L-ascorbate, and 2 μM ammonium iron(II) sulfate. Reaction product was determined quantitatively by TR-FRET after the addition of detection reagent Phycolink Streptavidin-allophycocyanin (Prozyme) and Europium-anti-di-methylated histone H3 lysine 9 (H3K9me2) antibody (PerkinElmer) in the presence of 5 mM EDTA in LANCE detection buffer (PerkinElmer) at a final concentration of 50 nM and 1 nM, respectively.
as §1, with “nM H3K9me3-biotin” for “nM H3K4me3-biotin”, “DMSO were” for “DMSO was”, “of 0.9” for “of 2.4”, “nM JMJD2C” for “nM Jarid1B”, “containing 100” for “containing 50”, “nM Europium-anti-H3K9me2” for “nM Europium-anti-H3K4me/H3K4me2”

Experiment [1] relates to esophageal squamous cell carcinoma KYSE-150 cells. Put plainly: Cellular IC50 in KYSE-150 cells. The settings on record: Homo sapiens, one class given per A and B pair. The format is cell-based. An excerpt:
Table 7 provides IC50 values of various compounds disclosed herein, tested in cellular human esophageal squamous cell carcinoma KYSE-150 cells: […]

[2] abbreviates: Table 4, cell gives A/B enantiomer values.
Setting [3] is: Table 5, one class given per A and B pair.

Data on 13 compounds can be found in patent US10059687B2, “Histone demethylase inhibitors” (CELGENE QUANTICEL RESEARCH, INC., priority 2015, dated 2018).

Each structure is given as a SMILES string.

Sequence of Jarid1B (Q9UGL1 whole entry, species assumed): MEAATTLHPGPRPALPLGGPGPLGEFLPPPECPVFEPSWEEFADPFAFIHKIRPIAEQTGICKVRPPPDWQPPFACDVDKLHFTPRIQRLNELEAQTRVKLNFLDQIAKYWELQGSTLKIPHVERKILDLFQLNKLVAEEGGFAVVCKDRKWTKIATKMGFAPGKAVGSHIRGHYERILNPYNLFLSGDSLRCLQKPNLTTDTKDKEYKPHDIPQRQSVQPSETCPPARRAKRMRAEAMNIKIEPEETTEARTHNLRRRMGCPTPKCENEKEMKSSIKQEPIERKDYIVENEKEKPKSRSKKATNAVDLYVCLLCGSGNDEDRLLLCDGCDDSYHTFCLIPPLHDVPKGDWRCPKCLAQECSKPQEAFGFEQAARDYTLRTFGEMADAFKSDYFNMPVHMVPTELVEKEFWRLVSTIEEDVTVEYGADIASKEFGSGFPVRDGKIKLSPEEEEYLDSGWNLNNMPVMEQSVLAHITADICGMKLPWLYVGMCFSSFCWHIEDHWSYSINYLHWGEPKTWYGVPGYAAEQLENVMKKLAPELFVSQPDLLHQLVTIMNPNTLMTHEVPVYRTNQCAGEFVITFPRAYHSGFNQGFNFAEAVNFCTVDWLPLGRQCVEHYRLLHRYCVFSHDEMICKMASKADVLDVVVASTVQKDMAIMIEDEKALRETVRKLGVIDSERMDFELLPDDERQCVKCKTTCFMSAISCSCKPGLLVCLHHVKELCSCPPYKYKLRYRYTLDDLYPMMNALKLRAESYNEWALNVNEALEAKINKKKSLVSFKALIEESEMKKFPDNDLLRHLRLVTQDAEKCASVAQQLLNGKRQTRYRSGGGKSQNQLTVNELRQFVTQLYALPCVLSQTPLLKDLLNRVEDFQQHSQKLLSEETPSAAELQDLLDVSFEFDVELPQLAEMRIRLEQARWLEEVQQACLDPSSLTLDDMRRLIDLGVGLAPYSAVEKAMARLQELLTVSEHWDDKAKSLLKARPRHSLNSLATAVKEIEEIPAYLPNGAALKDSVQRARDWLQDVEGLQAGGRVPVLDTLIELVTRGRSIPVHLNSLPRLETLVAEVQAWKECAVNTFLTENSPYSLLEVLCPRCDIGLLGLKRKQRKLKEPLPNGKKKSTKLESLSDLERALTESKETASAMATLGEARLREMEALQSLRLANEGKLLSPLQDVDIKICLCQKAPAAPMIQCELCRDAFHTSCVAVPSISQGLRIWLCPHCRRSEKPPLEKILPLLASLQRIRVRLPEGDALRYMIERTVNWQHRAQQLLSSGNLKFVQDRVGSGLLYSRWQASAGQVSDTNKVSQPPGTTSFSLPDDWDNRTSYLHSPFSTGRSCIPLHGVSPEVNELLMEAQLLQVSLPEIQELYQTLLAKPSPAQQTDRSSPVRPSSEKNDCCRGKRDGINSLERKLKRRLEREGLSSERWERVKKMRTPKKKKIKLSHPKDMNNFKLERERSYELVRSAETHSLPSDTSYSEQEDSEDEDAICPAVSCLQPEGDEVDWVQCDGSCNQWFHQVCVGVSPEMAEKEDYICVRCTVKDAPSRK
Sequence of JMJD2C (Q9H3R0 2-372): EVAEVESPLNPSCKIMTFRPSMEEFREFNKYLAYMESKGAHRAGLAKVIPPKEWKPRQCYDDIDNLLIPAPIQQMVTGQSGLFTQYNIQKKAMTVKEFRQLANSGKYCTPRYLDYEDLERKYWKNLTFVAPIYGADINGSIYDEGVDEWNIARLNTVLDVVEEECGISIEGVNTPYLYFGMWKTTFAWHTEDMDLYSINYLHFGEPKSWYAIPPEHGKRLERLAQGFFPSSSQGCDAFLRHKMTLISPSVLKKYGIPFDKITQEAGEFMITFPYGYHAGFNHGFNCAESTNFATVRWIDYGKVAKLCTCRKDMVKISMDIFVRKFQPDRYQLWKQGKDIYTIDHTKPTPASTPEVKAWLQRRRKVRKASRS

The term IC50 denotes the concentration at which inhibition is half-maximal. Turning to `Cc1cc(OCC2CC2)ccc1-c1ccc2c(c1)CCN[C@@H]2CNc1cnccc1C(=O)O` [Example 4A, 3-[({(1S)-6-[4-(cyclopropylmethoxy)-2-methylphenyl]-1,2,3,4-tetrahydro-isoquinolyl}methyl)amino]pyridine-4-carboxylic acid], the IC50 is at most 100 nM at Jarid1B (setting [2]); at most 100 nM against Jarid1B (setting [3]); 1000 to 10000 nM at JMJD3 (setting [2]); over 10000 nM on JMJD3 (setting [3]); 1000 to 10000 nM at JMJD2C (setting [2]); 100 to 1000 nM against JMJD2C (setting [3]). In experiment [1], this compound returned an IC50 of 100 to 1000 nM.
On to `Cc1cc(OCC2CC2)ccc1-c1ccc2c(c1)CCN[C@H]2CNc1cnccc1C(=O)O` [Example 4B, 3-[({(1R)-6-[4-(cyclopropylmethoxy)-2-methylphenyl]-1,2,3,4-tetrahydro-isoquinolyl}methyl)amino]pyridine-4-carboxylic acid], for which the IC50 on Jarid1B (setting [2]) is at most 100 nM; on Jarid1B (setting [3]), at most 100 nM; on JMJD3 (setting [2]), over 10000 nM; against JMJD3 (setting [3]), over 10000 nM; at JMJD2C (setting [2]), 1000 to 10000 nM; on JMJD2C (setting [3]), 100 to 1000 nM. Also, the IC50 in experiment [1] is 100 to 1000 nM.
With `CC(C)c1ccc(N(C)c2ccc3c(c2)CN[C@@H]3CNc2cnccc2C(=O)O)cc1` [Example 6A, 3-{[((1S)-5-{methyl[4-isopropylphenyl]amino}isoindolinyl)methyl]amino}pyridine-4-carboxylic acid], the IC50 on Jarid1B (setting [2]) was at most 100 nM; against Jarid1B (setting [3]), at most 100 nM; at JMJD3 (setting [2]), 1000 to 10000 nM; on JMJD3 (setting [3]), 1000 to 10000 nM; against JMJD2C (setting [2]), 1000 to 10000 nM; at JMJD2C (setting [3]) it was 1000 to 10000 nM. Besides, the IC50 in experiment [1] was 100 to 1000 nM.
Consider `CC(C)c1ccc(N(C)c2ccc3c(c2)CN[C@H]3CNc2cnccc2C(=O)O)cc1` [Example 6B, 3-{[((1R)-5-{methyl[4-isopropylphenyl]amino}isoindolinyl)methyl]amino}pyridine-4-carboxylic acid], for which the IC50 is at most 100 nM on Jarid1B (setting [2]); at most 100 nM against Jarid1B (setting [3]); over 10000 nM against JMJD3 (setting [2]); 1000 to 10000 nM against JMJD3 (setting [3]); 1000 to 10000 nM against JMJD2C (setting [2]); 1000 to 10000 nM against JMJD2C (setting [3]). In experiment [1], the half-inhibitory concentration (IC50) fell in the range of 100 to 1000 nM.
Take `Cc1cc(OCC(F)(F)F)ccc1-c1ccc2c(c1)CN[C@@H]2CNc1cnccc1C(=O)O` [Example 7A, 3-[({(1S)-5-[2-methyl-4-(2,2,2-trifluoro-ethoxy)phenyl]isoindolinyl}methyl)amino]pyridine-4-carboxylic acid]: the IC50 is at most 100 nM at Jarid1B (setting [2]); at most 100 nM on Jarid1B (setting [3]); 100 to 1000 nM on JMJD3 (setting [2]); 1000 to 10000 nM on JMJD3 (setting [3]); 1000 to 10000 nM at JMJD2C (setting [2]); 1000 to 10000 nM against JMJD2C (setting [3]). The compound further displayed an IC50 in experiment [1] of 100 to 1000 nM.
`Cc1cc(OCC(F)(F)F)ccc1-c1ccc2c(c1)CN[C@H]2CNc1cnccc1C(=O)O` [Example 7B, 3-[({(1R)-5-[2-methyl-4-(2,2,2-trifluoro-ethoxy)phenyl]isoindolinyl}methyl)amino] pyridine-4-carboxylic acid]: the IC50 against Jarid1B (setting [2]) was at most 100 nM; against Jarid1B (setting [3]) it was at most 100 nM; against JMJD3 (setting [2]), 1000 to 10000 nM; against JMJD3 (setting [3]) it was 1000 to 10000 nM; against JMJD2C (setting [2]), 1000 to 10000 nM; on JMJD2C (setting [3]), 1000 to 10000 nM. For the same compound, the IC50 in experiment [1] was in the range of 100 to 1000 nM.
With `Cc1ccccc1-c1ccc2c(c1)CCN[C@H]2CNc1cnccc1C(=O)O` [Example 8A, (R)-3-(((6-(o-tolyl)-1,2,3,4-tetrahydroisoquinolin-1-yl)methyl)amino)isonicotinic Acid], the IC50 is at most 100 nM on Jarid1B (setting [3]), 1000 to 10000 nM against JMJD3 (setting [3]), 1000 to 10000 nM at JMJD2C (setting [3]) and 100 to 1000 nM in experiment [1].
`Cc1ccccc1-c1ccc2c(c1)CCN[C@@H]2CNc1cnccc1C(=O)O` [Example 8B, (S)-3-(((6-(o-tolyl)-1,2,3,4-tetrahydroisoquinolin-1-yl)methyl)amino) isonicotinic Acid]: the IC50 against Jarid1B (setting [3]) is at most 100 nM; against JMJD3 (setting [3]), 1000 to 10000 nM; at JMJD2C (setting [3]), 1000 to 10000 nM; in experiment [1], 100 to 1000 nM.
As to `CCc1ccccc1-c1ccc2c(c1)CCN[C@H]2CNc1cnccc1C(=O)O` [Example 9A, (R)-3-(((6-(2-ethylphenyl)-1,2,3,4-tetrahydroisoquinolin-1-yl)methyl)amino)isonicotinic Acid], the half-inhibitory concentration (IC50) at Jarid1B (setting [3]) is at most 100 nM; against JMJD3 (setting [3]), 1000 to 10000 nM; against JMJD2C (setting [3]), 1000 to 10000 nM; in experiment [1], 100 to 1000 nM.
Consider `CCc1ccccc1-c1ccc2c(c1)CCN[C@@H]2CNc1cnccc1C(=O)O` [Example 9B, (S)-3-(((6-(2-ethylphenyl)-1,2,3,4-tetrahydroisoquinolin-1-yl)methyl)amino)isonicotinic Acid], for which the half-maximal inhibitory concentration (IC50) at Jarid1B (setting [3]) was at most 100 nM; against JMJD3 (setting [3]), 1000 to 10000 nM; against JMJD2C (setting [3]), 1000 to 10000 nM; in experiment [1], 100 to 1000 nM.
Regarding `CCc1ccc(N(C)c2ccc3c(c2)CCN[C@H]3CNc2cnccc2C(=O)O)cc1` [Example 10A, (R)-3-(((6-((4-ethylphenyl)(methyl)amino)-1,2,3,4-tetrahydroisoquinolin-1-yl)methyl)amino)isonicotinic acid], the IC50 was at most 100 nM against Jarid1B (setting [3]), 1000 to 10000 nM against JMJD3 (setting [3]), 1000 to 10000 nM on JMJD2C (setting [3]) and 100 to 1000 nM in experiment [1].
For `CCc1ccc(N(C)c2ccc3c(c2)CCN[C@@H]3CNc2cnccc2C(=O)O)cc1` [Example 10B, (S)-3-(((6-((4-ethylphenyl)(methyl)amino)-1,2,3,4-tetrahydroisoquinolin-1-yl)methyl)amino)isonicotinic acid], the IC50 on Jarid1B (setting [3]) was at most 100 nM; at JMJD3 (setting [3]) it was 1000 to 10000 nM; against JMJD2C (setting [3]), 1000 to 10000 nM; in experiment [1], 100 to 1000 nM.
Regarding `Cc1ccc(N(C)c2ccc3c(c2)CCN(C)[C@H]3CNc2cnccc2C(=O)O)cc1` [Example 11A, (R)-3-(((2-methyl-6-(methyl(p-tolyl)amino)-1,2,3,4-tetrahydroisoquinolin-1-yl)methyl)amino)isonicotinic acid], the IC50 against Jarid1B (setting [3]) is at most 100 nM; at JMJD3 (setting [3]), 1000 to 10000 nM; on JMJD2C (setting [3]), 100 to 1000 nM; in experiment [1] it was at most 100 nM.
